Values quoted from earlier work, collected in patent US6379294B1, “Process for preparing esterquats” (Akzo Nobel N.V., priority 1999, dated 2002).

Conditions: salts of the tertiary amines as such; from Klomp, Kruka, Reijnhart, IBC Conference 1998

Compound | Inhibition of the growth of gas hydrates
CCCCCCCCCCN(CCCC)CCCC [di-n-butyl decyl amine] | inhibited the growth of gas hydrates
CCCCN(CCCC)CCCC [tri-n-butyl amine] | inhibited the growth of gas hydrates
